Tested on: P12-Ichikawa
Experiment: cell viability relative to DMSO control; higher = less cytotoxic
Conditions: 48 h
How it was run: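 In 1536-well plates, 5 μl of leukemia cells were seeded per well: 500 cells/well for NOMO1 or SEM and 1000 cells/well for P12-Ichikawa. Each line had first been adapted for at least four passages in each medium. Library compounds in DMSO were pin-dosed at 11 threefold concentrations between 47 μM and 0.79 nM, and CellTiter-Glo One luminescence was read after 48 h at 37°C. Viability is a per-plate percentage relative to DMSO wells, with cell-free wells as background.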

[1] = RPMI 5 mM glucose + 10% FBS, 0.000781 µM
[2] = RPMI 5 mM glucose + 10% FBS, 0.00234 µM
[3] = RPMI 5 mM glucose + 10% FBS, 0.00702 µM
[4] = RPMI 5 mM glucose + 10% FBS, 0.0211 µM
[5] = RPMI 5 mM glucose + 10% FBS, 0.0632 µM
[6] = RPMI 5 mM glucose + 10% FBS, 0.19 µM
[7] = RPMI 5 mM glucose + 10% FBS, 0.569 µM
[8] = RPMI 5 mM glucose + 10% FBS, 1.71 µM
[9] = RPMI 5 mM glucose + 10% FBS, 5.12 µM
[10] = RPMI 5 mM glucose + 10% FBS, 15.4 µM
[11] = RPMI 5 mM glucose + 10% FBS, 46.1 µM
[12] = HPLM + 10% dialyzed FBS, 0.000781 µM
[13] = HPLM + 10% dialyzed FBS, 0.00234 µM
[14] = HPLM + 10% dialyzed FBS, 0.00702 µM
[15] = HPLM + 10% dialyzed FBS, 0.0211 µM
[16] = HPLM + 10% dialyzed FBS, 0.0632 µM
[17] = HPLM + 10% dialyzed FBS, 0.19 µM
[18] = HPLM + 10% dialyzed FBS, 0.569 µM
[19] = HPLM + 10% dialyzed FBS, 1.71 µM
[20] = HPLM + 10% dialyzed FBS, 5.12 µM
[21] = HPLM + 10% dialyzed FBS, 15.4 µM
[22] = HPLM + 10% dialyzed FBS, 46.1 µM
[23] = RPMI 5 mM glucose + 10% dialyzed FBS, 0.000781 µM
[24] = RPMI 5 mM glucose + 10% dialyzed FBS, 0.00234 µM
[25] = RPMI 5 mM glucose + 10% dialyzed FBS, 0.00702 µM
[26] = RPMI 5 mM glucose + 10% dialyzed FBS, 0.0211 µM
[27] = RPMI 5 mM glucose + 10% dialyzed FBS, 0.0632 µM
[28] = RPMI 5 mM glucose + 10% dialyzed FBS, 0.19 µM
[29] = RPMI 5 mM glucose + 10% dialyzed FBS, 0.569 µM
[30] = RPMI 5 mM glucose + 10% dialyzed FBS, 1.71 µM
[31] = RPMI 5 mM glucose + 10% dialyzed FBS, 5.12 µM
[32] = RPMI 5 mM glucose + 10% dialyzed FBS, 15.4 µM
[33] = RPMI 5 mM glucose + 10% dialyzed FBS, 46.1 µM

Compound	cell viability [1] [%]	cell viability [2] [%]	cell viability [3] [%]	cell viability [4] [%]	cell viability [5] [%]	cell viability [6] [%]	cell viability [7] [%]	cell viability [8] [%]	cell viability [9] [%]	cell viability [10] [%]	cell viability [11] [%]	cell viability [12] [%]	cell viability [13] [%]	cell viability [14] [%]	cell viability [15] [%]	cell viability [16] [%]	cell viability [17] [%]	cell viability [18] [%]	cell viability [19] [%]	cell viability [20] [%]	cell viability [21] [%]	cell viability [22] [%]	cell viability [23] [%]	cell viability [24] [%]	cell viability [25] [%]	cell viability [26] [%]	cell viability [27] [%]	cell viability [28] [%]	cell viability [29] [%]	cell viability [30] [%]	cell viability [31] [%]	cell viability [32] [%]	cell viability [33] [%]
O=C(CCCCCCC(=O)Nc1ccc([C@H]2O[C@@H](CSc3nc(-c4ccccc4)c(-c4ccccc4)o3)C[C@@H](c3ccc(CO)cc3)O2)cc1)NO	118	122	134	123	136	116	115	114	49.9	4.95	3.26	–	–	–	–	–	–	–	–	–	–	–	–	–	–	–	–	–	–	–	–	–	–
COc1ccc(OC)c(-c2nnc3ccc(-c4ccc(OC)c(O[C@@H]5CCOC5)c4)nn23)c1	–	–	–	–	–	–	–	–	–	–	–	119	118	118	126	136	117	126	132	128	124	105	–	–	–	–	–	–	–	–	–	–	–
N#Cc1ccc(Oc2ccc3c(c2)COB3O)cc1	117	120	127	81.7	135	125	139	138	123	124	53.1	112	119	123	90.6	129	125	125	102	81.5	80.6	33.9	119	117	113	83.9	132	120	135	139	130	124	38.6
OC[C@H]1O[C@H](C[C@@H]1O)N2\C=C(F)/C(=O)NC2=O	115	104	101	106	92.2	55.2	51.6	38.1	25.6	33.6	30.1	123	109	110	92.4	78.1	47.9	33.3	28.5	20.6	22.7	11	124	109	116	109	76.9	45.7	34.3	30.3	21.8	27.6	19.4
O=C(CS(=O)Cc1ccco1)NC/C=C\COc1cc(CN2CCCCC2)ccn1 (centres undefined)	87.7	88	93.3	99.8	104	98.7	–	96.4	109	94.4	109	90.8	98.6	100	98	101	102	107	104	107	112	100	78.9	87.4	87.2	97.4	101	94.4	95.9	92.3	93.2	105	99.3
Cc1c(-c2cccc3c(CCCOc4cccc5ccccc45)c(C(=O)O)n(Cc4cccnc4)c23)c(COc2ccc(N3CCN([S+](=O)([O-])N(C)C)CC3)cc2)nn1C	92.1	87.7	94.1	85.6	87.2	92.7	84.2	88	91.2	87	74	96	94.3	87.4	93.2	97.4	91.6	88.5	85.8	91	80.3	71.6	91.7	93.4	91.4	95.3	93	88.2	82.8	90.8	81.3	82.4	67
CC[C@]12CC[C@H]3[C@@H](CCC/4=C/C(=O)CC[C@H]34)[C@@H]1CC[C@@]2(O)C#C	86.3	88.3	87.2	90.4	85.1	83.9	75.1	88	86.1	79.6	83.7	94.2	85.6	83.8	87.2	104	89.2	68.9	79.3	85.5	82.6	90.5	83.3	79.5	88.3	79.3	86.7	78	81.3	77	83.1	73	79.7
Cc1nn(C)c(COc2ccc(N3CCN([S+](=O)([O-])N(C)C)CC3)cc2)c1-c1cccc2c(CCCOc3cccc4ccccc34)c(C(=O)O)n(CCN3CCOCC3)c12	89.3	107	101	97.7	105	107	109	113	104	109	46.6	92.3	99.2	97.4	102	103	106	107	110	29.9	29.2	28	87.5	107	104	106	112	115	120	114	96.1	97.6	36.7

Reference: the supplement of paper PMC11451515
